Laboratory results as given in patent US6656971B2, “Trisubstituted carbocyclic cyclophilin binding compounds and their use” (Guilford Pharmaceuticals Inc., priority 2001, dated 2003).

Tests used:
[1] = target: T1, recombinant rat CyPA-GST fusion protein (Rattus norvegicus, UniProt P10111); assay: Semiautomated microtiter plate assay of rotamase activity inhibition, rat CyPA-GST fusion protein; type: biochemical; conditions: Table B, value with asterisk: recombinant rat CyPA-GST fusion protein
T1 construct: made in house; host or cells: E. coli BL21
Description: (§1) The Cyclophilin utilized was a human recombinant CyPA, [Yoo et al., J. Mol. Biol., 269 (1997) 780-95].
The resulting fragment (573 base pairs) was cloned into pCRII and amplified. The CyP sequence was cut out with Sma1 and EcoR1 and cloned into the Sma1/EcoR1 sites in pGEX2TK (Pharmacia). This plasmid was transformed into BL21 E. coli cells for expression of the GST-CyPA fusion protein.
Rotamase inhibition was determined using a semiautomated microtiter plate assay modification of the above described assay [see Küllertz et al., Clin. Chem. 44, 502-508 (1998)]. All dilutions of CyPA, peptide substrate, and chymotrypsin were made in 35 mM ice-cold HEPES buffer. Fifty μL of CyPA solution is added to 50 μL of the peptide substrate solution (Phe-Pro-Phe p-nitroanilide, 0.16 mg/ml) in a glass microtiter well plate (the concentration of human recombinant CyP being adjusted so that the reaction rate is increased by a factor of 3 as compared to an uncatalyzed control reaction wherein the peptide substrate is degraded by chymotrypsin alone, in the absence of CyPA and test compound). Using a Beckman Multimek™ 96 automated 96-channel pipettor, 5 μL of test compound solution, or a DMSO blank, were added to each well for a 30 minute preincubation at 4° C. One hundred μL of chymotrypsin solution (1 mg/mL) were added to each well and the absorbance at 390 nm versus time was monitored for 9-10 minutes using a BioRad Ultramark plate reader maintained at 4° C. and the rate constants were determined from the absorbance versus time data files.
IC50 values which were obtained for representative compounds are presented in the following Table B. The cyclophilin utilized was a human recombinant CyPA. […] While CyP A was used in these examples, other CyP proteins can be substituted.

[2] = test system: SMI-32 immunoreactive neurons of lumbar spinal cord slices; assay: Neuroprotection assay in spinal cord slice preparations (THA-induced cell death); type: cell-based, Sprague-Dawley rat; conditions: THA 200 μM + compound 10 μM
Description: All cultures were derived from postnatal day 8 (P8) Sprague-Dawley rat lumbar spinal cord slices of 325 micrometer thickness, prepared using a commercially available McIlwain tissue chopper. Each experiment consisted of two 6-well plates with 5 slices from 4 different animals per well. Media changes were performed every 3 to 4 days. Cultures were treated with THA [L(−)-threo-3-hydroxyaspartic acid; Tocris Cookson Inc., Ballwin, Mo.] at 200 μM+compound (10 μM) after one week in culture. The control was an untreated sample with 0.1% DMSO as vehicle. The THA control was a THA treated sample with 0.1% DSMO as vehicle. Two wells were used per condition. One media change with new THA and compounds was performed. […]
Slices were permeabilized with 100% cold methanol for 10 minutes, subsequently washed 3×in 0.1M phosphate buffer and transferred to staining wells. […] Quantification of surviving neurons was performed on a Zeiss Axiovert microscope. Neuronal survival was determined by observing an intact neuronal cell body with processes located ventrally of the central canal in each hemisphere. […] Each hemisphere was counted individually. The statistics were performed with StatView™ software on a minimum of three different experiments per condition and significance was determined as compared to THA control. […]

[3] = target: T1, recombinant rat CyPA-GST fusion protein; assay: Rotamase (PPIase) inhibition, chymotrypsin-coupled cuvette assay, rat CyPA-GST fusion protein; type: biochemical; conditions: Table A, value with asterisk: recombinant rat CyPA-GST fusion protein
[4] = target: human recombinant CyPA (Homo sapiens, UniProt P62937); assay: Rotamase (PPIase) inhibition, chymotrypsin-coupled cuvette assay, human recombinant CyPA; type: biochemical; conditions: Table A, value without asterisk: human recombinant CyPA
From the text: A number of substrates for rotamase are known in the art or can be derived from those known. Typically, the substrate contacts a sample containing a protein with rotamase activity and the conversion of the substrate is detected after a period of time. The method for detecting conversion of the substrate will vary with the particular substrate chosen. One method has been termed the Ki test (See Harding, et al., Nature, 341:758-760 (1989); and Holt et al., J. Am. Chem. Soc., 115:9923-9938). The cis-trans isomerization of an alanine-proline bond in a model substrate, N-succinyl-Ala-Ala-Pro-Phe-p-nitroanilide (SEQ ID NO: 1), is monitored spectrophotometrically in a chymotrypsin-coupled assay. The action of chymotrypsin releases p-nitroaniline from only the trans form of the substrate. The amount of p-nitroaniline can be monitored in a spectrophotometer, for example. Other methods of detecting the presence of p-nitroaniline can also be used. The inhibition of this reaction caused by different concentrations of inhibitor is determined and the data are analyzed as a change in first-order rate constant as a function of inhibitor concentration, which yields the Ki value.
The following were added to a plastic cuvette: 950 μl of ice cold assay buffer (25 mM HEPES, pH 7.8, 100 mM NaCl), 10 μL of CyP A (2.5 μM in 10 mM Tris-Cl pH 7.5, 100 mM NaCl, 1 mM dithiothreitol), 25 μL of chymotrypsin (50 mg/ml in 1 mM HCl), and 10 μL of test compound, at various concentrations, in dimethyl sulfoxide. The reaction was initiated by the addition of 5 μL of substrate (succinyl-Ala-Phe-Pro-Phe-para-nitroanilide (SEQ ID NO: 1), 5 mg/mL in 470 mM LiCl in trifluoroethanol). The absorbance at 390 nm versus time was monitored for 90 seconds using a spectrophotometer and the rate constants were determined from the absorbance versus time data files.
The IC50 values which were obtained for representative compounds are given in the following Table A, and refer to the concentration that inhibits 50% of the rotamase activity in a sample.
as §1

T1 sequence (P10111 2-164): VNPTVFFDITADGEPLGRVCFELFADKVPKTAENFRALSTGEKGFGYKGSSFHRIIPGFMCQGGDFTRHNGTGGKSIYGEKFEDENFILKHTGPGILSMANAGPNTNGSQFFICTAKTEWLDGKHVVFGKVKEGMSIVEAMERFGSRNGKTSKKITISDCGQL
human recombinant CyPA, sequence (P62937 whole entry): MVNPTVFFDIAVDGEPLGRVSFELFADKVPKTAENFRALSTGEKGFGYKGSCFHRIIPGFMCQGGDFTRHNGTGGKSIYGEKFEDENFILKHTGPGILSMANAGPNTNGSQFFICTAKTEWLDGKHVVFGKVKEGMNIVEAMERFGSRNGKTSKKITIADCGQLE

Structure (SMILES) | IC50 [1] [µM] | protection from THA-induced cell death [2] | SMI-32 immunoreactive neurons per ventral hemisphere ([2]; untreated control 26.4±4.2, THA control 18.97±2.04 (mean±standard error)) [cells/ventral hemisphere] | IC50 [3] [µM] | IC50 [4] [µM] | melting point [°C]
O=C(Nc1ccc(Cl)c(Cl)c1)c1cc(OCc2ccccc2)cc(C(=O)Nc2ccc(Cl)c(Cl)c2)c1 [Compound 43] | 0.287 | complete protection | 28.14±2.4 | 0.377 |  | 
O=C(Nc1cc(OCc2cccc3ccccc23)ccc1Br)c1cccc(C(F)(F)F)c1 [Compound 34, N-[2-bromo-5-(naphthylmethoxy)phenyl][3-(trifluoromethyl)phenyl]formamide] | 9.72 |  |  | 12 | 11.7 | 125 to 127
